Test results published in patent US4317775A (Hoffmann-La Roche Inc., priority 1980, dated 1982).
In brackets after ≈: the same amount, converted by molar mass. Several values for one entry are separate records, joined by “and”; a condition that tells them apart may be missing. Equal entries are not always repeated. Structures can show the parent of a compound that is named as a salt. Where two headings read alike, the source gives them in different places.

How the values were obtained:
[1] = tested on: E. coli; assay: In vivo activity against systemic infection in mice, E. coli; conditions: in mg/kg
From the text: (§1) The PD50 is the protective dose for 50% of the animals treated against a challenge organism.

[2] = tested on: Streptococcus pneumonia II; assay: In vitro activity (MIC/MBC), Streptococcus pneumonia II; assay type: cell-based; conditions: Streptococcus pneumoniae; for MBC: read-out: Minimum Inhibitory Concentration (MBC); for MIC: read-out: Minimum Inhibitory Concentration (MIC)
From the text: (§2) MIC is the Minimum Inhibitory Concentration. MBC is the Minimum Bactericidal Concentration.
(§3) Results reported in Table 3(a) are reported as MIC defined above and results reported in Table 3(b) are reported as MBC defined above.

[3] = tested on: Salmonella schottmuelleri; assay: In vitro activity (MIC/MBC), Salmonella schottmuelleri; assay type: cell-based
From the text: as §2, §3

[4] = tested on: Klebsiella pneumoniae; assay: In vitro activity (MIC/MBC), Klebsiella pneumoniae; assay type: cell-based; conditions: for MIC: read-out: Minimum Inhibitory Concentration (MIC)
From the text: as §2, §3

[5] = tested on: Streptococcus pneumoniae I; assay: In vitro activity (MIC/MBC), Streptococcus pneumoniae I; assay type: cell-based; conditions: MBC, read-out: Minimum Inhibitory Concentration (MBC)
From the text: as §2, §3

[6] = tested on: P. aeruginosa; assay: In vivo activity against systemic infection in mice, P. aeruginosa
From the text: as §1

[7] = tested on: K. pneumoniae; assay: In vivo activity against systemic infection in mice, K. pneumoniae; conditions: in mg/kg
From the text: as §1

[8] = tested on: Salmonella typhosa; assay: In vitro activity (MIC/MBC), Salmonella typhosa; assay type: cell-based; conditions: Salmonella enterica
From the text: as §2, §3

[9] = tested on: Escherichia coli; assay: In vitro activity (MIC/MBC), Escherichia coli; assay type: cell-based
From the text: as §2, §3

[10] = tested on: Proteus vulgari; assay: In vitro activity (MIC/MBC), Proteus vulgari; assay type: cell-based
From the text: as §2, §3

[11] = Acute toxicity in mice
[12] = tested on: P. mirabilis; assay: In vivo activity against systemic infection in mice, P. mirabilis; conditions: in mg/kg
From the text: as §1

[13] = tested on: S. aureus; assay: In vivo activity against systemic infection in mice, S. aureus; conditions: in mg/kg
From the text: as §1

[14] = tested on: Staphylococcus aureus; assay: In vitro activity (MIC/MBC), Staphylococcus aureus; assay type: cell-based
From the text: as §2, §3

[15] = tested on: S. pyogenes; assay: In vivo activity against systemic infection in mice, S. pyogenes
From the text: as §1

[16] = tested on: S. pneumoniae II; assay: In vivo activity against systemic infection in mice, S. pneumoniae II
From the text: as §1

[17] = in vivo; conditions: mouse
[18] = tested on: S. pneumoniae I; assay: In vivo activity against systemic infection in mice, S. pneumoniae I
From the text: as §1

[19] = tested on: Streptococcus pyogenes; assay: In vitro activity (MIC/MBC), Streptococcus pyogenes; assay type: cell-based
From the text: as §2, §3

[20] = read-out: Minimum Inhibitory Concentration (MIC)
[21] = MBC, read-out: Minimum Inhibitory Concentration (MBC)

CC1(C)S[C@@H]2[C@H](NC(=O)[C@H](N)c3ccc(O)cc3)C(=O)N2[C@H]1C(=O)O [Amoxicillin, amoxicillin, reference compound]
PD50 ([1]; oral): 14.1 and 18.5 and 19.3 and 13.1
PD50 ([1]; subcutaneous): 10 and 5.9 and 7.3 and 6.8
MBC [2]: 0.049 µg/mL (≈ 0.134 µM)
MIC [2]: 0.024 µg/mL (≈ 0.0657 µM)
MBC ([3]; MBC, Salmonella schottmuelleri, read-out: Minimum Inhibitory Concentration (MBC)): 0.78 µg/mL (≈ 2.13 µM)
MIC ([3]; Salmonella, read-out: Minimum Inhibitory Concentration (MIC)): 0.78 µg/mL (≈ 2.13 µM)
MIC [4]: 0.39 µg/mL (≈ 1.07 µM)
MBC [5]: 0.024 µg/mL (≈ 0.0657 µM)
PD50 ([6]; oral): > 200 mg/kg
PD50 ([6]; subcutaneous): > 200 mg/kg
PD50 ([7]; subcutaneous): 3.6 and 5 and 3.7
MBC ([8]; read-out: Minimum Inhibitory Concentration (MBC), MBC, Salmonella typhosa): 0.39 µg/mL (≈ 1.07 µM)
MIC ([8]; read-out: Minimum Inhibitory Concentration (MIC), Salmonella typhosa): 0.39 µg/mL (≈ 1.07 µM)
MIC [9, 20]: 3.12 µg/mL (≈ 8.55 µM)
MIC ([9]; read-out: Minimum Inhibitory Concentration (MIC), Escherichia coli): 6.25 µg/mL (≈ 17.1 µM)
MBC [10, 21]: 0.78 µg/mL (≈ 2.13 µM)
MIC [10, 20]: 1.56 µg/mL (≈ 4.27 µM)
LD50 ([11]; mice, i.p.): 3535 mg/kg and 3150 mg/kg
LD50 ([11]; mouse, in vivo, ip, LD50, mice): 3140 mg/kg
LD50 ([11]; mouse, in vivo, po, LD50, mice): > 10000 mg/kg
LD50 ([11]; mouse, in vivo, sc, LD50, mice): > 10000 mg/kg
PD50 ([12]; oral): 1.8 and 1.1
PD50 ([12]; subcutaneous): < 0.5 and 0.6
PD50 ([13]; oral): 0.5 and 0.6
PD50 ([13]; subcutaneous): < 0.2

CCC1CC(F)C(N(C2OC(CC)CC2F)[C@@H](C(=O)N[C@@H]2C(=O)N3[C@@H]2SC(C)(C)[C@@H]3C(=O)O)c2ccc(O)cc2)O1 (relative stereo) [Compound IV, {2S-[2α,5α,6β(S*)]}-6-{bis[5-ethyl-3-fluoro-2-tetrahydrofuranylamino-(4-hydrophenyl)-acetyl]amino}-3,3-dimethyl-7-oxo-4-thia-1-azabicyclo-[3.2.0]heptane-2-carboxylic acid sodium salt]
PD50 ([1]; oral): 22.1
PD50 ([1]; subcutaneous): 10.4
MBC [2]: 0.027 µg/mL
MIC [2]: 0.013 µg/mL
MBC [4, 21]: 0.437 µg/mL
MIC [4]: 0.218 µg/mL
MBC [14, 21]: 0.055 µg/mL
MIC [14, 20]: 0.055 µg/mL
PD50 ([15]; oral): 6 mg/kg
PD50 ([15]; subcutaneous): 4.4 mg/kg
PD50 ([7]; oral): 4.8
PD50 ([7]; subcutaneous): 2.4
PD50 ([16]; oral): 0.7 mg/kg
PD50 ([16]; subcutaneous): 0.5 mg/kg
MBC [9, 21]: 3.5 µg/mL
MIC [9, 20]: 3.5 µg/mL
LD50 ([17]; ip): 3520 mg/kg
LD50 ([17]; po): 3960 mg/kg
LD50 ([17]; sc): 2800 mg/kg
PD50 ([18]; oral): 0.7 mg/kg
PD50 ([18]; subcutaneous): 0.9 mg/kg
MBC [19, 21]: > 0.218 µg/mL
MIC [19, 20]: 0.027 µg/mL
PD50 ([12]; oral): 1.6
PD50 ([12]; subcutaneous): 0.4
PD50 ([13]; oral): 1.2
PD50 ([13]; subcutaneous): 0.34
